Results as given in PubChem BioAssay (NCI).
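Growth conditions: 96-well plates. Treatment: test compound, 48 hours, 5 concentrations. Analysis: linear interpolation between bracketing concentrations; unreached endpoints set to highest concentration. Definition used: TGI = concentration required for complete inhibition of growth.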

How the values were obtained:
Assay in all cases: growth of human tumour cells (NCI), 48 h
[1] = test system: 786-0 renal
[2] = test system: A549 NSCLC
[3] = test system: ACHN renal
[4] = test system: CCRF-CEM leukemia
[5] = test system: COLO 205 colon
[6] = test system: DLD-1 colon
[7] = test system: DMS 273 small cell lung
[8] = test system: EKVX NSCLC
[9] = test system: HCC-2998 colon
[10] = test system: HCT-116 colon
[11] = test system: HCT-15 colon
[12] = test system: HL-60(TB) leukemia
[13] = test system: HOP-18 NSCLC
[14] = test system: HOP-62 NSCLC
[15] = test system: HOP-92 NSCLC
[16] = test system: HT29 colon
[17] = test system: KM20L2 colon
[18] = test system: LOX IMVI melanoma
[19] = test system: LXFL 529 NSCLC
[20] = test system: M19-MEL melanoma
[21] = test system: MALME-3M melanoma
[22] = test system: MOLT-4 leukemia
[23] = test system: NCI-H226 lung
[24] = test system: NCI-H23 lung
[25] = test system: NCI-H460 lung
[26] = test system: OVCAR-3 ovarian
[27] = test system: OVCAR-5 ovarian
[28] = test system: OVCAR-8 ovarian
[29] = test system: RPMI-8226 leukemia
[30] = test system: RXF 393 renal
[31] = test system: SF-268 CNS
[32] = test system: SF-295 CNS
[33] = test system: SF-539 CNS
[34] = test system: SK-MEL-2 melanoma
[35] = test system: SK-MEL-28 melanoma
[36] = test system: SK-OV-3 ovarian
[37] = test system: SN12C renal
[38] = test system: SNB-19 CNS
[39] = test system: SNB-75 CNS
[40] = test system: SNB-78 CNS
[41] = test system: SR leukemia
[42] = test system: SW-620 colon
[43] = test system: TK-10 renal
[44] = test system: U251 CNS
[45] = test system: UACC-257 melanoma
[46] = test system: UACC-62 melanoma
[47] = test system: UO-31 renal
[48] = test system: XF 498 CNS

Measured: TGI

Nc1nc2ncn(CCO)c2c(=O)[nH]1
> 100 µM: all assays above
